The text below walks through data of EPA's ToxRefDB 2.

Where only a bound is given, the exact number is not on record here.

Data set [1] relates to dog. Conditions: Combined chronic toxicity/carcinogenicity; beagle; Oral; Feed; dose end: 104 week; group: systemic; systemic / clinical chemistry / alanine aminotransferase (alt/sgpt) / alanine aminotransferase (alt/sgpt) + systemic / clinical chemistry / ….
The subject of data set [2] is rat. As to conditions: Subchronic oral toxicity in rodents, other, Feed, dose end: 90 day, group: systemic, systemic / pathology gross / kidney / enlarged + systemic / pathology gross / liver / enlarged + systemic / urinalysis / glucose / glucose….
The subject of data set [3] is rabbit. As to conditions: Prenatal developmental toxicity study, new zealand white, Oral, Gavage/Intubation, dose end: 19 GD.
In data set [4] the test system is rat. Conditions: Subchronic oral toxicity in rodents, fischer, Gavage/Intubation, dose end: 14 week, group: systemic.
The test system of data set [5] is mouse. Conditions: Subchronic oral toxicity in rodents, b6c3f1, Gavage/Intubation, dose end: 14 week, group: systemic, systemic / hematology / erythrocyte (rbc) count differential / erythrocyte (rbc) + systemic / hematology / hematocrit (hct) / hematocrit (….
Data set [6] concerns dog. As to conditions: Subchronic oral toxicity in nonrodent, beagle, Capsule, dose end: 90 day, group: systemic.
Data set [7] deals with rat. Conditions: Prenatal developmental toxicity study, sprague dawley, Oral, Gavage/Intubation, dose end: 17 GD.
Data set [8] relates to rat. Conditions: Subchronic oral toxicity in rodents, sprague dawley, Feed, dose end: 3 month, group: systemic.
Data set [9] relates to dog. Conditions: Subchronic oral toxicity in nonrodent, beagle, Capsule, dose end: 90 day, group: systemic, systemic / clinical chemistry / alanine aminotransferase (alt/sgpt) / alanine aminotransferase (alt/sgpt) + systemic / clinical chemistry / ….
The test system of data set [10] is rabbit. Conditions: Prenatal developmental toxicity study, new zealand white, Oral, Gavage/Intubation, dose end: 20 GD.
Data set [11] relates to rat. As to conditions: Prenatal developmental toxicity study, wistar, Oral, Gavage/Intubation, dose end: 17 GD.
The subject of data set [12] is rat. As to conditions: Combined chronic toxicity/carcinogenicity, wistar, Oral, Water, dose end: 104 week, group: systemic.
In data set [13] the test system is dog. As to conditions: Chronic toxicity, beagle, Oral, Capsule, dose end: 52 week, group: systemic.
Data set [14] relates to mouse. Conditions: Carcinogenicity, cd1, Oral, Water, dose end: 104 week, group: systemic.
The test system of data set [15] is rat. As to conditions: Subchronic oral toxicity in rodents, fischer, Feed, dose end: 90 day, group: systemic.
Data set [16] relates to dog. Conditions: Chronic toxicity; beagle; Oral; Feed; dose end: 12 month; group: systemic; systemic / clinical chemistry / alkaline phosphatase (alp/alk) / alkaline phosphatase (alp/alk) + systemic / organ weight / liver / absolute….
Data set [17] deals with mouse. Conditions: Carcinogenicity, cd1, Oral, Feed, dose end: 80 week, group: systemic.
The test system of data set [18] is mouse. As to conditions: Subchronic oral toxicity in rodents, cd1, Feed, dose end: 13 week, group: systemic, systemic / organ weight / liver / absolute + systemic / organ weight / liver / relative to body weight + systemic / pathology microscopic / ….
In data set [19] the test system is rat. Conditions: Combined chronic toxicity/carcinogenicity, fischer, Oral, Feed, dose end: 24 month, group: systemic.
[20] abbreviates: group: developmental, developmental / developmental malformation / bone / supernumerary + systemic / in life observation / body weight / fetal weight.
The mark [21] stands for this setting: group: maternal, systemic / in life observation / body weight / body weight gain.
[22] abbreviates: systemic / clinical chemistry / alanine aminotransferase (alt/sgpt) / alanine aminotransferase (alt/sgpt) + systemic / clinical chemistry / ….
Where [23] appears, read: systemic / hematology / hematocrit (hct) / hematocrit (hct) + systemic / pathology microscopic / nose / degeneration + systemic / clinical ….
Setting [24] is: systemic / organ weight / liver / absolute + systemic / organ weight / liver / relative to body weight.
Setting [25] is: group: developmental, developmental / developmental malformation / bone / full supernumerary + developmental / developmental malformation / bone / cervical + ….
Where [26] appears, read: group: maternal, systemic / in life observation / body weight / body weight gain + systemic / in life observation / food consumption / food consumption.
The mark [27] stands for this setting: group: maternal, systemic / in life observation / body weight / body weight gain + systemic / in life observation / food consumption / food consumption + ….
Setting [28] is: systemic / hematology / hematocrit (hct) / hematocrit (hct) + systemic / hematology / hemoglobin (hgb) / hemoglobin (hgb).
Setting [29] is: systemic / hematology / hematocrit (hct) / hematocrit (hct) + systemic / hematology / hemoglobin (hgb) / hemoglobin (hgb) + systemic / in ….
The mark [30] stands for this setting: group: developmental, developmental / developmental malformation / bone / enlarge suture + developmental / developmental malformation / bone / incomplete ….
The mark [31] stands for this setting: group: developmental, developmental / developmental malformation / bone / unossified + developmental / developmental malformation / other / other + systemic / in ….
[32] abbreviates: systemic / clinical chemistry / cholesterol / cholesterol + systemic / clinical chemistry / triglycerides / triglycerides + systemic / ….
Setting [33] is: systemic / clinical chemistry / alanine aminotransferase (alt/sgpt) / alanine aminotransferase (alt/sgpt) + systemic / pathology microscopic….
Setting [34] is: systemic / clinical chemistry / aspartate aminotransferase (ast/sgot) / aspartate aminotransferase (ast/sgot) + systemic / hematology / ….
Setting [35] is: systemic / in life observation / food consumption / food consumption + systemic / in life observation / water consumption / water ….
[36] abbreviates: systemic / pathology microscopic / liver / sarcoma + systemic / pathology gross / full gross necropsy / sarcoma.
[37] abbreviates: systemic / in life observation / body weight / body weight gain + systemic / pathology microscopic / liver / hypertrophy + systemic / in ….
Setting [38] is: systemic / in life observation / body weight / body weight gain + systemic / pathology microscopic / liver / hypertrophy + systemic / organ ….
The mark [39] stands for this setting: systemic / in life observation / body weight / body weight + systemic / in life observation / body weight / body weight gain + systemic / ….
[40] abbreviates: systemic / in life observation / body weight / body weight gain + systemic / organ weight / kidney / relative to body weight.
Setting [41] is: systemic / in life observation / body weight / body weight gain + systemic / organ weight / kidney / relative to body weight + systemic / ….

Turning to `COc1cc(Cl)c(OC)cc1Cl` [Chloroneb], in the data set on dog [1], the LEL amounted to 62.5 mg/kg/day, the LOAEL was 62.5 mg/kg/day, the NEL stood at 12.5 mg/kg/day and the NOAEL stood at 12.5 mg/kg/day. Moreover, in the data set on rat [2], the LEL worked out at 375 mg/kg/day, the LOAEL was 375 mg/kg/day, the NEL turned out to be 25 mg/kg/day and the NOAEL stood at 25 mg/kg/day. In the data set with rabbit [3] (setting [20]), the LEL is 1000 mg/kg/day, the LOAEL stood at 1000 mg/kg/day, the NEL worked out at 100 mg/kg/day and the NOAEL was determined as 100 mg/kg/day. In the data set on rabbit [3] (setting [21]), this compound gave an LEL of 1000 mg/kg/day, an LOAEL of 1000 mg/kg/day, an NEL of 100 mg/kg/day and an NOAEL of 100 mg/kg/day.

`CCCC=NO` [Butanal oxime]: in the data set on rat [4] (setting [22]), the LOAEL is > 600 mg/kg/day and the no-observed-adverse-effect level (NOAEL) was ≥ 600 mg/kg/day. For the same compound, in the data set with rat [4] (setting [23]), the LEL turned out to be 25 mg/kg/day and the NEL was < 25 mg/kg/day. Moreover, in the data set with mouse [5], the LEL came out at 25 mg/kg/day, the lowest-observed-adverse-effect level (LOAEL) is > 600 mg/kg/day, the NEL is < 25 mg/kg/day and the NOAEL was ≥ 600 mg/kg/day.

As to `CC(C)(C)C(O)/C(=C\c1ccc(Cl)cc1Cl)n1cncn1` (configuration not stated) [Diniconazole], the LOAEL in the data set on dog [6] (systemic / in life observation / food consumption / food efficiency) came out at 200 mg/kg/day; in the data set with rat [7] (group: developmental, developmental / developmental malformation / bone / full supernumerary + developmental / developmental malformation / bone / cervical), 20 mg/kg/day; in the data set with rat [7] (setting [26]) it was 20 mg/kg/day; with rat [8] (setting [28]), 0.71 mg/kg/day. Further, the NOAEL is 40 mg/kg/day in the data set with dog [6] (systemic / in life observation / food consumption / food efficiency + systemic / clinical chemistry / alkaline phosphatase (alp/alk) / …), 5 mg/kg/day in the data set with rat [7] (setting [25]), 5 mg/kg/day in the data set on rat [7] (setting [27]) and < 0.71 mg/kg/day with rat [8] (setting [28]). For the same compound, the LEL stood at 40 mg/kg/day in the data set on dog [6] (setting [24]), 20 mg/kg/day in the data set on rat [7] (setting [25]), 20 mg/kg/day in the data set on rat [7] (setting [26]) and 0.71 mg/kg/day with rat [8] (setting [29]). Also, the NEL is < 40 mg/kg/day in the data set with dog [6] (setting [24]), 5 mg/kg/day in the data set with rat [7] (setting [25]), 5 mg/kg/day with rat [7] (setting [27]) and < 0.71 mg/kg/day in the data set with rat [8] (setting [29]).

For `CNC(=S)[S-].[Na+]` [Metam-sodium], the LEL was found to be 1 mg/kg/day with dog [9]; 20 mg/kg/day in the data set on rabbit [10] (setting [30]); 20 mg/kg/day in the data set with rabbit [10] (setting [27]); 20 mg/kg/day with rat [11] (setting [31]); 20 mg/kg/day in the data set with rat [11] (setting [27]); 6.2 mg/kg/day with rat [12] (systemic / in life observation / body weight / body weight gain). Further, the values for the LEL with dog [13] (setting [34]) and with mouse [14] (setting [36]) were 0.05 mg/kg/day and 1.6 mg/kg/day, respectively. In addition, the LOAEL was found to be 1 mg/kg/day in the data set on dog [9]; 20 mg/kg/day with rabbit [10] (setting [30]); 20 mg/kg/day with rabbit [10] (setting [27]); 20 mg/kg/day in the data set on rat [11] (group: developmental, developmental / developmental malformation / bone / unossified + developmental / developmental malformation / other / other); 20 mg/kg/day with rat [11] (setting [26]); 12 mg/kg/day in the data set on rat [12] (setting [32]). Besides, the LOAEL in the data set with dog [13] (setting [33]) worked out at 1 mg/kg/day; in the data set with mouse [14] (setting [35]) it was 6.5 mg/kg/day. Moreover, the NEL in the data set on dog [9] is < 1 mg/kg/day; in the data set with rabbit [10] (setting [30]), 5 mg/kg/day; in the data set with rabbit [10] (setting [27]), 5 mg/kg/day; in the data set on rat [11] (setting [31]) it was 5 mg/kg/day; in the data set on rat [11] (setting [27]), 5 mg/kg/day; in the data set on rat [12] (systemic / in life observation / body weight / body weight gain + systemic / clinical chemistry / cholesterol / cholesterol + systemic / …) it was 2.3 mg/kg/day. Further, the NEL was < 0.05 mg/kg/day with dog [13] (setting [34]) and < 1.6 mg/kg/day in the data set on mouse [14] (setting [36]). The NOAEL in the data set on dog [9] was < 1 mg/kg/day; in the data set with rabbit [10] (setting [30]), 5 mg/kg/day; with rabbit [10] (setting [27]), 5 mg/kg/day; in the data set on rat [11] (setting [31]), 5 mg/kg/day; with rat [11] (setting [27]), 5 mg/kg/day; in the data set with rat [12] (setting [32]), 3.9 mg/kg/day. Besides, the NOAEL turned out to be 0.1 mg/kg/day in the data set on dog [13] (setting [33]) and 1.6 mg/kg/day with mouse [14] (setting [35]).

Consider `Fc1ccc(Oc2ccnc3cc(Cl)cc(Cl)c23)cc1` [Quinoxyfen], for which the NEL in the data set with rat [15] (setting [37]) is 10 mg/kg/day; in the data set with dog [16], 20 mg/kg/day; in the data set on mouse [17] (setting [39]), 80 mg/kg/day; in the data set on mouse [18], 100 mg/kg/day; in the data set on rat [19] (setting [40]) it was 20 mg/kg/day. Further, the NOAEL in the data set with rat [15] (setting [37]) came out at 10 mg/kg/day; in the data set on dog [16], 20 mg/kg/day; in the data set on mouse [17] (setting [39]) it was 80 mg/kg/day; with mouse [18], 100 mg/kg/day; in the data set with rat [19] (setting [40]) it was 20 mg/kg/day. Also, the LEL in the data set on rat [15] (setting [38]) amounted to 100 mg/kg/day; in the data set with dog [16], 200 mg/kg/day; in the data set with mouse [17] (setting [39]), 250 mg/kg/day; in the data set on mouse [18], 500 mg/kg/day; in the data set with rat [19] (setting [41]), 80 mg/kg/day. In addition, the LOAEL in the data set with rat [15] (setting [38]) is 100 mg/kg/day; in the data set on dog [16], 200 mg/kg/day; in the data set on mouse [17] (systemic / in life observation / body weight / body weight + systemic / in life observation / body weight / body weight gain), 250 mg/kg/day; in the data set on mouse [18], 500 mg/kg/day; in the data set with rat [19] (setting [41]) it was 80 mg/kg/day.

In general, LOAEL refers to the lowest tested level that showed an adverse finding. What is called NOAEL is the highest tested level that showed no adverse finding.
